Results on seven compounds are retold here after patent US8119614B2, “Substitution derivatives of N6-benzyladenosine, methods of their preparation, their use for preparation of drugs, cosmetic preparations and growth regulators, pharmaceutical preparations, cosmetic preparations and growth regulators containing these compounds” (Ustav Experimentalni Botaniky Akademie Ved Ceske Republiky, priority 2002, dated 2012).

Structures are written as SMILES. “Also recorded” adds a separate entry of the source. Where only a bound is given, the exact number is not on record here.

Test [1] concerns breast carcinoma cell lines MCF-7. Put plainly: In vitro cytotoxic activity, Calcein AM assay, MCF7. The class given is cell-based, human. The following applies: 72 hours, read-out: IC 50 MCF7. A digest of the protocol: (§1)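 Cells seeded at 10^4 per well, pre-incubated 24 h, then exposed to six 4-fold dilutions (top well concentration usually 166.7 μM, duplicates) for 72 h at 37 °C. Viability read by Calcein AM fluorescence after 1 h; GI50 taken from dose-response curves relative to control wells.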

Test [2] has as its system human malignant melanoma cells G361. In words: In vitro cytotoxic activity, Calcein AM assay, G-361. The format is cell-based. The following applies: 72 hours, read-out: IC 50 G-361. The text has this: One of the parameters used, as the basis for cytotoxicity assays, is the metabolic activity of viable cells. For example, a microtiter assay, which uses the Calcein AM, is now widely used to quantitate cell proliferation and cytotoxicity. For instance, this assay is used in drug screening programs and in chemosensitivity testing. Because only metabolically active cells cleave Calcein AM, these assays detect viable cells exclusively. The quantity of reduced Calcein AM corresponds to the number of vital cells in the culture.
Human T-lymphoblastic leukemia cell line CEM; promyelocytic HL-60 and monocytic U937 leukemias; breast carcinoma cell lines MCF-7; cervical carcinoma cells HELA; mouse fibroblasts NIH3T3; human erythroleukaemia K562 and human malignant melanoma cells G361 were used for routine screening of compounds. The cells were maintained in Nunc/Corning 80 cm^2 plastic tissue culture flasks and cultured in cell culture medium (DMEM with 5 g/l glucose, 2 mM glutamine, 100 U/ml penicillin, 100 μg/ml streptomycin, 10% fetal calf serum and sodium bicarbonate).
The cell suspensions that were prepared and diluted according to the particular cell type and the expected target cell density (10^4 cells per well based on cell growth characteristics) were added by pipette (80 μl) into 96/well microtiter plates. Inoculates were allowed a pre-incubation period of 24 hours at 37° C. and 5% CO2 for stabilisation. Four-fold dilutions of the intended test concentration were added at time zero in 20 μl aliquots to the microtiter plate wells. Usually, test compound was evaluated at six 4-fold dilutions. In routine testing, the highest well concentration was 166.7 μM, but it can be the matter of change dependent on the agent. All drug concentrations were examined in duplicates. Incubations of cells with the test compounds lasted for 72 hours at 37° C., in 5% CO2 atmosphere and 100% humidity. At the end of incubation period, the cells were assayed by using the Calcein AM. Ten microliters of the stock solution were pipetted into each well and incubated further for 1 hours. Fluorescence (FD) was measured with the Labsystem FIA Reader Fluoroscan Ascent (UK). The tumour cell survival (GI50) was calculated using the following equitation: GI50=(FDdrug exposed well/mean FDcontrol wells)×100%. The GI50 value, the drug concentration lethal to 50% of the tumour cells, was calculated from the obtained dose response curves (FIG. 3).

Test [3] has as its system HOS. Put plainly: In vitro cytotoxic activity, Calcein AM assay, HOS. The class given is cell-based. The following applies: 72 hours.
For test [4], the system named is mouse fibroblasts NIH3T3. In words: In vitro cytotoxic activity, Calcein AM assay, NIH-3T3. The format is cell-based. The following applies: 72 hours, read-out: IC 50 NIH-3T3. A digest of the protocol:
as §1

Test [5] concerns promyelocytic HL-60. Put plainly: In vitro cytotoxic activity, Calcein AM assay, HL60. The class given is cell-based, human. The following applies: 72 hours, read-out: IC 50 HL60. In short, it runs like this:
as §1

In test [6] the test system is Human lymphocytes. Put plainly: Immunosuppressive activity: concanavalin A induced lymphocyte proliferation, [^3H]-TdR incorporation. The class given is cell-based. The following applies: 72 hours, read-out: Human lymphocytes ED50. As for the experimental part: Human heparinized peripheral blood was obtained from healthy volunteers by cubital vein punction. The blood was diluted in PBS (1:3) and mononuclear cells were separated by centrifugation in Ficoll-Hypaque density gradient (Pharmacia, 1.077 g/ml) at 2200 rpm for 30 minutes. Following centrifugation, lymphocytes were washed in PBS and resuspended in cell culture medium (RMPI 1640, 2 mM glutamine, 100 U/ml penicillin, 100 μg/ml streptomycin, 10% fetal calf serum and sodium bicarbonate).
The cells were diluted at target density of 1,100,000 cells/ml were added by pipette (180 μl) into 96/well microtiter plates. Four-fold dilutions of the intended test concentration were added at time zero in 20 μl aliquots to the microtiter plate wells. Usually, test compound was evaluated at six 4-fold dilutions. In routine testing, the highest well concentration was 266.7 μM. All drug concentrations were examined in duplicates. All wells with exception of unstimulated controls were activated with 50 μl of concanavalin A (25 μg/ml). Incubations of cells with test compounds lasted for 72 hours at 37° C., in 5% CO2 atmosphere and 100% humidity. At the end of incubation period, the cells were assayed by using the [^3H]-TdR:
Cell cultures were incubated with 0.5 μCi (20 μl of stock solution 500 μCi/ml) per well for 6 hours at 37° C. and 5% CO2. The automated cell harvester was used to lyse cells in water and adsorb the DNA onto glass-fiber filters in the format of microtiter plate. The DNA incorporated [^3H]-TdR was retained on the filter while unincorporated material passes through. The filters were dried at room temperature overnight, sealed into a sample bag with 10-12 ml of scintillant. The amount of [^3H]-TdR present in each filter (in cpm) was determined by scintillation counting in a Betaplate liquid scintillation counter. The effective dose of immunosuppressant (ED) was calculated using the following equation: ED=(CCPMdrug exposed well/mean CCPMcontrol wells)×100%. The ED50 value, the drug concentration inhibiting proliferation of 50% of lymphocytes, was calculated from the obtained dose response curves.

The test system of test [7] is Human T-lymphoblastic leukemia cell line CEM. Put plainly: In vitro cytotoxic activity, Calcein AM assay, CEM. The format is cell-based. The following applies: 72 hours. In short, it runs like this:
as §1

Test [8] relates to human erythroleukaemia K562. In words: In vitro cytotoxic activity, Calcein AM assay, K-562. The following applies: 72 hours, read-out: IC 50 K-562. The class given is cell-based. A digest of the protocol: as §1
The test system of test [9] is Amaranthus caudatus cotyledon/hypocotyl explants. Put plainly: Amaranthus bioassay (betacyanin content). The class given is in vivo. In short, it runs like this: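 Surface-sterilised Amaranthus caudatus var. atropurpurea seeds were germinated 72 h at 25° C. in darkness, then de-rooted. Cotyledon/hypocotyl explants (20 per dish) were incubated under green safe light on filter paper with 1 ml medium of 10 μmol NA2HPO4-KH2PO4, pH 6.8, 5 μmol tyrosine and cytokinin (10^-8M to 10^-4M) for 48 h at 25° C. in darkness. Betacyanin was extracted in […] acetic acid and measured by absorbance at 537 nm and 620 nm.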

Test [10] deals with Rosa multiflora. Put plainly: In vitro and post vitro multiplication and rooting of rose. The format is in vivo.
Test [11] deals with Rosa hybrida ‘Pailin’. In words: Early shoot senescence inhibition of tissue cultured roses. The following applies: 10 μM in medium. The format is in vivo. As for the experimental part:
Rosa hybrida ‘Pailin’ (a cut rose) was cultured in 350 ml vessels with a screw on polycarbonate lid. Each culture vessel contained 100 ml autoclaved medium (120° C., 20 min). The cultures were maintained at 23±2° C. under a 16 h photoperiod at […] m^−2 s^−1 PAR. The basal medium (MBR) contained Murashige and Skoog (1962) macroelements, microelements and vitamins, 36.7 mg/l NaFeEDTA, 50 mg/l NaFeEDDHA, […], 30 g/l sucrose, 100 mg/l glycine, 50 mg/l calcium pantothenate, 100 mg/l L-glutamine and 7 g/l agar-agar. This medium was supplemented with 10 μM of the tested cytokinin. New cytokinins were filter sterilised and added after autoclaving the medium in the vessels. 6-Benzylaminopurine (BAP) was used as a standard compound; the control medium didn't contain any cytokinin. After a culture period of 6 weeks, scoring senescence symptoms was started.

Test [12] concerns glutamate kinase. Put plainly: Field studies: glutamate kinase activity in spring wheat. The following applies: 6 days after the application, Control = 100.0. The class given is in vivo. The arrangement: tested at 1 µM (10^-6 M spray solution). As for the experimental part: (§2) Height of plants, leaf area, dry matter, development of vegetation opex—bases of future spike, and number of spikelets were monitored after germination in 14 day intervals, […]. From these primary data, values used in production physiology are derived, as leaf area index LAI, photosynthetic capacity LAD, tillering potential. Experiments with treatment of spring wheat crop (variety Sandra) are carried out on the field (area 10 m^2, four replicates) by spraying 1 litr of 10^−6 molar solution of tested compound (cytokinin) at the transition period from jointing stage to athesis stage (49 DC).
Glutamate kinase activity was determined 6 days after the application. This enzyme was selected because of good corelation of its activity changes and state of transport of endogenous substances (nutrients from roots, assimilates to cariopsis), respiration, energy (adenosintriphosphate) transfer, storage of nutrients, growth and developmental proceses, and also metabolism of proline, which is known from literature to play an important role in adaptation against stress (unsuitable stand, drought, hypersalinity, coldness) and also in regulation of both theoretical and real production (restriction of seed number reduction per spikelet). Enzyme glutamate kinase catalyses to glutamate conversion into γ glutamylphosphate, which is first step of proline biosynthesis from glutamate. Therefore, this enzyme is, as essential precursor of other plant metabolic pathways, marker of stress inhibition. It can be determined spectrofotometrically (Vasáková, 1980). For analysis, acetone powder is prepared from a sample by standard method, subsequently extracted by 0.05M potassium-phosphate buffer pH=7.2 and centrifugated. Glutamate kinase fraction is precipitated using crystalline ammonium sulfate and after dialysis, glutamate kinase activity is determined spectrophotometrically. Proline accumulation increased by stress corresponds as a “feedback” to glutamate kinase inhibition.

Test [13] has as its system spring wheat (variety Sandra). In words: Field studies: yield analysis of spring wheat crop. The format is in vivo. The following applies: spray of 10^−6 molar solution, Control = 100.0. As for the experimental part:
Crops (over the 4-year period) of spring wheat were sown in the experimental fields of Czech Agriculture University (CZU) (region of sugar beet production type) at a seeding rate of 400 germinative grains·m^−2 into ploughed and shoddy soil containing 116.1 mg/kg P, 228.3 mg/kg K, and 211.8 mg/kg Mg (agrochemical analyses were done at Department of Pedology CZU) (interval between ploughing and sowing is usually 3-4 days, longer only in case of adverse weather conditions). Preceding crop was rape. Soil preparation was done by the classical way using skid and harrow and after seeding is rolled.
as §2
Yield analysis, evaluating spike lenght and seed number per spikelet (Σ Z/K) were carried out for 30 plant per each variant, yield from 1 m^2 and 1000 grain weight (HTS) was determined from 8 replicates, yield per ha was subsequently calculated.

Setting [14] is: Ex vitro, after four weeks of acclimatising.

For the compound `OC[C@H]1O[C@@H](n2cnc3c(NCc4cccc(Cl)c4O)ncnc32)[C@H](O)[C@@H]1O` [2-hydroxy-3-chlorobenzylamino, 6-(2-hydroxy-3-chlorobenzylamino)purine riboside], the IC50 in test [1] was 15 µM; in [2], 128 µM; in test [3], above 167 µM; in [4], above 167 µM; in test [5] it was 0.1 µM; in test [7], 0.3 µM. Besides, the IC50 in test [8] is 10.7 µM. In addition, the EC50 in test [6] was found to be 2.1 µM.

Regarding `OC[C@H]1O[C@@H](n2cnc3c(NCc4ccccc4O)ncnc32)[C@H](O)[C@@H]1O` [2-hydroxybenzylamino, 6-(2-hydroxybenzylamino)purine riboside], the IC50 in [1] was 11.4 µM; in test [2] it was above 167 µM; in test [3], 2.8 µM; in [4], 43.2 µM; in test [5] it was 0.42 µM; in test [7] it was 0.7 µM. The IC50 in test [8] is 88 µM. Besides, the EC50 in test [6] was 4.8 µM.

With `OC[C@H]1O[C@@H](n2cnc3c(NCc4ccc(O)c(O)c4)ncnc32)[C@H](O)[C@@H]1O` [3,4-dihydroxybenzylamino, 6-(3,4-dihydroxybenzylamino)purine riboside], the “Concentration with highest activity” value in test [9] (48 h dark) was 10^−4 mol · l^−1. For the same compound, the “Activity (%) [10^−5 mol · l^−1 BAP = 100%]” value in test [9] (at concentration with highest activity) was found to be 8 ± 3%. Also, the EC50 in test [6] came to 8.3 µM.

For the compound `OC[C@H]1O[C@@H](n2cnc3c(NCc4cccc(O)c4)ncnc32)[C@H](O)[C@@H]1O` [3-hydroxybenzylamino, 6-(3-hydroxybenzylamino)purine riboside], the IC50 was above 167 µM in test [1]; above 167 µM in test [2]; above 167 µM in test [3]; above 167 µM in test [4]; 23.7 µM in test [5]; 51.9 µM in [7]. Moreover, the IC50 in test [8] is above 167 µM. Also, in test [6], the EC50 was 10.7 µM.

Take `c1ccc(CNc2ncnc3nc[nH]c23)cc1` [BAP, 6-benzylaminopurine, reference compound]: in test [10] (10 μM in medium), the “shoot multiplication and rooting (in words)” value is on record as “high shoot multiplication rate, but the shoots rooted badly”. In addition, in [10] (setting [14]), the “Root number per plant” value is 0.6 and the “Total root length per plant (cm)” value turned out to be 1.1 cm. Further, in test [10] (In vitro, 10 μM, 8 weeks), the “Flower number per explant” value was 0.00, the “Number of new shoots per explant” value is listed as 3.8, the “Root number per explant” value was found to be 0.0 and the “Total root length per explant (cm)” value turned out to be 0.0 cm. Also, the “senescence / dying of rose explants (in words)” value in test [11] is listed as “the relative number of dead plants looks like a sigmoid curve; also recorded: dead Rosa explant”. For the same compound, the “GK % (glutamate kinase activity)” value in test [12] is 108.2%. In addition, in test [13], the “HTS (%) (1000 grain weight)” value was determined as 102.0%, the “Yield(%)” value came out at 115.4%, the “Σ Z/K (%) (seed number per spikelet)” value was 111.9% and the “Σ spike/m^2 (%)” value worked out at 101.1%.

As for `OC[C@H]1O[C@@H](n2cnc3c(NCc4ccccc4)ncnc32)[C@H](O)[C@@H]1O` [BAPR, 6-benzylaminopurine riboside, reference compound], in test [12], the “GK % (glutamate kinase activity)” value was found to be 154.1%. In test [13], the “HTS (%) (1000 grain weight)” value stood at 103.8%, the “Yield(%)” value was 121.9%, the “Σ Z/K (%) (seed number per spikelet)” value is listed as 114.3% and the “Σ spike/m^2 (%)” value is 102.7%.

On to `Oc1cccc(CNc2ncnc3nc[nH]c23)c1` [mT, 6-(3-hydroxybenzylamino)purine], for which, in test [11], the “senescence / dying of rose explants (in words)” value is on record as “the situation improved”.
